The test system of one series is rat DRGs. The series can be described thus: NGF-treated rat DRG neuropathic model, capsaicin-induced tetanic burst. The format is cell-based. To be noted: NGF 100 ng/ml pretreated. On the procedure: DRGs treated with NGF show tetanic action potential burst in response to CAP application, mimicking neuropathic like response. See, Background Art FIG. 8A. NGF enhances TRPV1 function using Calcium-dependent fluorescence, F, relative to maximal fluorescence, Fmax, as a function of time from a single HEK293 cell stably transfected with TrkA and transiently transfected with hTRPV1. Pulses of capsaicin (100 nM, applied as shown at top) elicited submaximal increases in [Ca]i. Exposure to NGF (100 ng/mL, see top) enhanced the capsaicin induced calcium increase. Arrows show responses used for calculation of sensitization ratio.

The next series deals with rats. Description: Hot plate (53° C.). The format is in vivo, rat. Here is the method:
Hot Plate: Animals were placed on hot plate analgesia meter (IITC Life Science Inc., CA, USA) set to 53±1° C., and the time until the first escape response was observed was recorded. A response was considered when the animals lifted or licked their leg or performed kicking behavior.

Series [1] relates to Salmonella typhimurium (TA98, TA100, TA1535, TA1537) and Escherichia coli WP2uvrA (pKM101). The series can be described thus: Mini-Ames assay. The note with it: 5 strains, with and without S9. The format is cell-based. On the procedure:
The Mini-Ames assay was performed according to the regulatory guidelines. In brief, 5 strains were selected for testing: Salmonella typhimurium (TA98, TA100, TA1535, TA1537) and Escherichia coli WP2uvrA (pKM101). A standard six-well culture plate with top agar containing 0.6% (w/v) agar and 0.5% (w/v) sodium chloride was supplemented with 0.5 mM D-biotin and 0.5 mM L-histidine for Salmonella typhimurium strains or 0.5 mM D-biotin and 0.5 mM L-tryptophan for Escherichia coli WP2uvrA (pKM101). […] Average number of revertants for each dose group condition was compared to negative control, and cytotoxicity and precipitates were recorded.
A general note: The Ames test uses bacterial strains that need an amino acid and regain growth without it when mutated back.

A further series relates to Dopamine D1-D5. The series can be described thus: Functional screening panel, Dopamine D1-D5. It is filed as biochemical. To be noted: up to 10 micromolar. Here is the method:
(§1) A broad panel of 78 recombinant targets was tested for pharmacologic activity in vitro through a variety of functional assays (Eurofins DiscoverX, USA), as part of the National Institute of Neurological Disorders and Stroke (NINDS) Preclinical Screening Platform for Pain (PSPP) program. The biological targets for the in vitro profiling have been selected based on avoiding opioid receptor stimulation and targets known to be associated with adverse events or targeted by drugs of abuse. […] For each test, a reference compound was evaluated at the target of interest as a positive control.

The target of another series is Cav1.2 (Homo sapiens, UniProt Q13936). Description: Functional screening panel, Cav1.2. The format is biochemical. To be noted: read-out: IC/EC50 Cav1.2. On the procedure: as §1
Chain of Cav1.2 (Q13936 whole entry): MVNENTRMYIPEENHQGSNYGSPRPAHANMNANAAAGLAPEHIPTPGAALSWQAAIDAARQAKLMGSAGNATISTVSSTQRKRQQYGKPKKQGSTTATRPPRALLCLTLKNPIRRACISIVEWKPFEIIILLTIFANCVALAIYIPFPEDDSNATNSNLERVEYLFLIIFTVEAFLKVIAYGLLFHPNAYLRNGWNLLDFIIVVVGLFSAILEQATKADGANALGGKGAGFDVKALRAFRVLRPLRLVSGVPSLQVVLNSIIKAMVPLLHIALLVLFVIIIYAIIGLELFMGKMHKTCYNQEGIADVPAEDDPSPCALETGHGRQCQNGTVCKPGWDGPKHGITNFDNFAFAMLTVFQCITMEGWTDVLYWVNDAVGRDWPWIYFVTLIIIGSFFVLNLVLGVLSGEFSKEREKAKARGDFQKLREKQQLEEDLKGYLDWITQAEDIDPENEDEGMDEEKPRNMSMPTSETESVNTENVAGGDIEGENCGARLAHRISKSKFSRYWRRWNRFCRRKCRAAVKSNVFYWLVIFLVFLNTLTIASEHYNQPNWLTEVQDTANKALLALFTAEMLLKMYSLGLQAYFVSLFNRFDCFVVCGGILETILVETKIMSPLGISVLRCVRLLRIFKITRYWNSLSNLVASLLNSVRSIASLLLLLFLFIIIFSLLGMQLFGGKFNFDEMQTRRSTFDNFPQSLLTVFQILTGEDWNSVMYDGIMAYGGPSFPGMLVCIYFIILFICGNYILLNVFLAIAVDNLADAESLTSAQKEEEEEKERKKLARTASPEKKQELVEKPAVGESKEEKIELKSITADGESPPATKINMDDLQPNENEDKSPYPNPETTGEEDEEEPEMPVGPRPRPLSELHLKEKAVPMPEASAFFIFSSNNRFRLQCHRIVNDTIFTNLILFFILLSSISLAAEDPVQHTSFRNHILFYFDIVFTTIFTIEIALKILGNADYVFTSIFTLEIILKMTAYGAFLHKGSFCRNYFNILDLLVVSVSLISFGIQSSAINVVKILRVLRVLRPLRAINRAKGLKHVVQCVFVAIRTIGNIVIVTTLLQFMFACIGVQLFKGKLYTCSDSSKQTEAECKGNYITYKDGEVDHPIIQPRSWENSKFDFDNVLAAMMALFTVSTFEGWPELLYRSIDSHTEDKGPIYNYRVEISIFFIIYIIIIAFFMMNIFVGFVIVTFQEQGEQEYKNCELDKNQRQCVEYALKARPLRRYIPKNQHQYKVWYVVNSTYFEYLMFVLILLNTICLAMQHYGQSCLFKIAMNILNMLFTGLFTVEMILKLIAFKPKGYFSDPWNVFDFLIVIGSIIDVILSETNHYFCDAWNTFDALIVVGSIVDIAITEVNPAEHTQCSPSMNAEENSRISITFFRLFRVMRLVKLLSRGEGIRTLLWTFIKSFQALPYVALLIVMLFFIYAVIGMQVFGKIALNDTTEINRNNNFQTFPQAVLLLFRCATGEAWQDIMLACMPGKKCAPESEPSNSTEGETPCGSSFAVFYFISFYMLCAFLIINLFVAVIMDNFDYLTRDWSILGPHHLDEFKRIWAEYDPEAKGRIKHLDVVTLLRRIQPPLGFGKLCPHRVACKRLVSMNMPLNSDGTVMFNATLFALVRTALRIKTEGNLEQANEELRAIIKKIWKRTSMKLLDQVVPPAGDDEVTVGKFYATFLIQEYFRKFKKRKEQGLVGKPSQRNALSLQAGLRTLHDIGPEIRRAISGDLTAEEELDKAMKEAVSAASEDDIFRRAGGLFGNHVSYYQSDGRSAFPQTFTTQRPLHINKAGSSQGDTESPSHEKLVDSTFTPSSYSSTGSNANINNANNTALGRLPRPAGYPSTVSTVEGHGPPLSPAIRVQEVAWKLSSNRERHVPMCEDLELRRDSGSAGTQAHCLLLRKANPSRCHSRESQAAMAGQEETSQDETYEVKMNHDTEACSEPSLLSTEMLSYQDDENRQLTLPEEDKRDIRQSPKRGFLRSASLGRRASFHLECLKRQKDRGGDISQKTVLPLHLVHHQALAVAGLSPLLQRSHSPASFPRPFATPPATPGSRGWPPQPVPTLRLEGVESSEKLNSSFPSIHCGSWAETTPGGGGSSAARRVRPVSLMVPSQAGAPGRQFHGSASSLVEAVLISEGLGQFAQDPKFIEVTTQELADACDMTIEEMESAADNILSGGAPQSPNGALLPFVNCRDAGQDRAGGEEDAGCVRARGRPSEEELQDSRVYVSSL
Chain of Cav1.2 (P54289 25-944 partner limits assumed): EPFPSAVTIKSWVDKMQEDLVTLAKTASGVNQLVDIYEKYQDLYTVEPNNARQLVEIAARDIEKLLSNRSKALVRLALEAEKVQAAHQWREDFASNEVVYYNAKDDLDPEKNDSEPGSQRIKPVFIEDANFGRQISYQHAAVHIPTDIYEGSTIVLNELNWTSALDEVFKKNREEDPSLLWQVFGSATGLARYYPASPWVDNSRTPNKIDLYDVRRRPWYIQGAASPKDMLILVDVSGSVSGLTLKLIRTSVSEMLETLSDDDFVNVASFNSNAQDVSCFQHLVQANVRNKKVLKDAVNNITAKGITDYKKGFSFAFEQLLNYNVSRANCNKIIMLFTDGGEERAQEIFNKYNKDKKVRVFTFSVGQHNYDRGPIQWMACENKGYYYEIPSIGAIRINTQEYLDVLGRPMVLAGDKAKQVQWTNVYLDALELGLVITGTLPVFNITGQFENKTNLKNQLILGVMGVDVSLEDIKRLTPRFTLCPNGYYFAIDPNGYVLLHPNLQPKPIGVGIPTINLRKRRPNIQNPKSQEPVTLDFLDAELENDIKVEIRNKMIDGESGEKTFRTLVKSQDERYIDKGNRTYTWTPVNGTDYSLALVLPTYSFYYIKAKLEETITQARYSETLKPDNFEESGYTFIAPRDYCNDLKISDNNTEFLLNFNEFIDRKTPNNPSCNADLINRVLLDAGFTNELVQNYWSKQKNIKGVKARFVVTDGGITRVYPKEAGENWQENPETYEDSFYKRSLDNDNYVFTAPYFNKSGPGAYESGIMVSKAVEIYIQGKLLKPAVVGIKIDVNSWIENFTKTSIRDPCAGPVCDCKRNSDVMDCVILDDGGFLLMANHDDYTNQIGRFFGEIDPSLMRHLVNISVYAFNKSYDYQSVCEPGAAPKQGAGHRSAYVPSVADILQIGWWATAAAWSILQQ
Chain of Cav1.2 (P54289 945-1103 partner limits assumed): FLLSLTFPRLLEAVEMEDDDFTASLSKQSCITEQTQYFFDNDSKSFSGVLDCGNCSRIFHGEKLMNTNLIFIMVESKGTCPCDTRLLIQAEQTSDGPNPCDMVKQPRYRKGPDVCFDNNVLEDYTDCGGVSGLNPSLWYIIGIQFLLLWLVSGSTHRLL
The target of a further series is T1, nAChR(a4/b2) (Homo sapiens, UniProt P17787+P43681).
T1 construct: Eurofins DiscoverX functional panel cells
Description: Functional selectivity panel, nAChR(a4/b2). It is filed as biochemical. To be noted: up to 10 micromolar. On the procedure:
as §1

Another series deals with COX-1/2. Description: Functional selectivity panel, COX-1/2. It is filed as biochemical. To be noted: up to 10 micromolar. Here is the method: as §1
The target of a further series is 5-HT1A (Homo sapiens, UniProt P08908). The series can be described thus: Functional screening panel, 5-HT1A. It is filed as biochemical. The note with it: antagonist; read-out: IC/EC50 5-HT1A-antagonist. Here is the method:
as §1

Another series has as its target T2, CYP2C19 (Homo sapiens, UniProt P33261).
T2 construct: pre-incubation of the human liver microsomes with the test compound; tissue Corning; host or cells: human liver microsomes
The series can be described thus: CYP inhibition / time-dependent inhibition, CYP2C19_S-Mephenytoin. The note with it: role: inhibitor. The format is in vitro ADME. On the procedure:
(§2) The time-dependent inactivation potency of the test compound to CYP enzymatic activities was assessed by the pre-incubation of the human liver microsomes with the test compound in the presence and absence of NADPH, followed by the incubation with the discrete marker substrates, as follows.
(§3) Pre-incubation with human liver microsomes (HLMs): The TDI inactivation potency on CYP enzymatic activities was evaluated through pre-incubation with HLMs (Corning). A liver microsome mixture at a concentration of 0.1 mg/mL, and the test compound at 8 different concentrations (0, 0.05, 0.165, 0.5, 1.65, 5.0, 16.5, or 50.0 μM) was warmed at 37° C. for 10 minutes. Concurrently, a set of known time-dependent inactivators was also prepared in duplicate for comparison. Following this, NADPH (1.0 mM) was added to one group (Group 1), and an equal volume of potassium phosphate buffer to the second group (Group 2), marking the beginning of a 30-minute pre-incubation at 37° C.
(§4) Incubation: After pre-incubation, the marker substrate, or marker substrate plus NADPH was added to the mixture, thereby initiating the incubation. The duration of the incubation was dependent on the type of CYP isoform being evaluated. For example, with the CYP3A isoform, the mixture was incubated over 3 minutes utilizing midazolam as the marker substrate (2.0 μM), verapamil as the standard inactivator (3.5 μM).
(§5) Termination of Reaction: Following the incubation, ice-cooled acetonitrile containing the internal standard (IS) was added to halt the reactions. Metabolites generated from the marker substrates were then measured via LC-MS/MS, assessed based on peak area ratios of the analyte to IS.

The next series concerns the target T3, CYP2D6 (Homo sapiens, UniProt P10635).
T3 construct: pre-incubation of the human liver microsomes with the test compound; tissue Corning; host or cells: human liver microsomes
Description: CYP inhibition / time-dependent inhibition, CYP2D6_Dextromethorphan. It is filed as in vitro ADME. The note with it: role: inhibitor. Here is the method: as §2, §3, §4, §5

The target of another series is T4, adrenergic α2A (Homo sapiens, UniProt P08913).
T4 construct: Eurofins DiscoverX, USA
The series can be described thus: Functional selectivity panel, adrenergic α2A. The format is biochemical. On the procedure: as §1

A short description of another series: DRG distribution in rat. It is filed as in vivo. To be noted: 8-hour post-dose.

pIC50: −log10 of the molar value. Entries after “also recorded” stand apart in the source; their conditions may differ. Where two headings read alike, the source gives them in different places. Where only a bound is given, the exact number is not on record here.

T2 sequence (P33261 whole entry): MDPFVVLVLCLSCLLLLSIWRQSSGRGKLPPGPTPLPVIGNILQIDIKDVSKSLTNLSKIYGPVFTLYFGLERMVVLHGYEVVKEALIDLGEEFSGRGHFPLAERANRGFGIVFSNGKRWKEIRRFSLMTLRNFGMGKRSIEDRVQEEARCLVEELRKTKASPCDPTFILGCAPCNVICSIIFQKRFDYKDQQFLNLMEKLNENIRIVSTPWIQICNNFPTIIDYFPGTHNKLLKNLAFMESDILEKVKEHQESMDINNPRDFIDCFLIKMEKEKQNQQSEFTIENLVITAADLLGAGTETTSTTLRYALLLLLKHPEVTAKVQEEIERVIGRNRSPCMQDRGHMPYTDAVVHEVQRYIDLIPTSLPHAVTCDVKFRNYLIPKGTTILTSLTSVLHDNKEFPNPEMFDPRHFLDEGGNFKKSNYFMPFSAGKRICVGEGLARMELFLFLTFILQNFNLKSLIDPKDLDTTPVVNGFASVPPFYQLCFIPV
T3 sequence (P10635 whole entry): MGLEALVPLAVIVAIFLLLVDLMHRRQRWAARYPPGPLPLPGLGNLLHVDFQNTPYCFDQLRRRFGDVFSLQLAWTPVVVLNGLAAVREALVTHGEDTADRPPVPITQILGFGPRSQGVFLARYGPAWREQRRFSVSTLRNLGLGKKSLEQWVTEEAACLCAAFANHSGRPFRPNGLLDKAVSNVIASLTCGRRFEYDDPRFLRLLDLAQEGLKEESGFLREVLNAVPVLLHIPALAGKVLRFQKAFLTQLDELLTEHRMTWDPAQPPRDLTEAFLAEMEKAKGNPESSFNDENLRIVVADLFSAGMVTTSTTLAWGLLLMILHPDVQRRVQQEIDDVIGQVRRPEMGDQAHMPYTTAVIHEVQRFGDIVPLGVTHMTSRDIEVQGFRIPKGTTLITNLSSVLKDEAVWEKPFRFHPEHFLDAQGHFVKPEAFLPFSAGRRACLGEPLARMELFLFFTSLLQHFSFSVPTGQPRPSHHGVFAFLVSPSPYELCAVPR
Chain of 5-HT1A (P08908 whole entry, species assumed): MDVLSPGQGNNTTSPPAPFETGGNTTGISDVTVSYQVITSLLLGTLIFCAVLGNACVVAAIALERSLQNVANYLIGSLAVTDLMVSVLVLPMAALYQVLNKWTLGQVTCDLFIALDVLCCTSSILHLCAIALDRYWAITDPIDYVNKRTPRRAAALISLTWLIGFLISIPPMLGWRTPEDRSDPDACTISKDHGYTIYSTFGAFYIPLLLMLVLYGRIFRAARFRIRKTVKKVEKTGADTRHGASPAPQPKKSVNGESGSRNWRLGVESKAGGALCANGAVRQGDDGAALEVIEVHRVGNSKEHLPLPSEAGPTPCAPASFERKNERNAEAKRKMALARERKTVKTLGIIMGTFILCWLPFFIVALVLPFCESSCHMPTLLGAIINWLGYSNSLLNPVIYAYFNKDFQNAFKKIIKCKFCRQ

`Cc1cn(-c2ccc(F)c(CC(=O)NCC(C)(C)O)c2)c2c(Cl)cc(Cl)cc12` [Compound 421-6]: the “Effect on capsaicin induced tetanic action potential burst” value in the series with rat DRGs is reported as “alleviates the capsaicin induced tetanic action potential burst at levels below EC50; also recorded: reversible inhibition”.
With `O=C(Cc1nccc(-n2cc(Cl)c3cc(Cl)cc(Cl)c32)n1)NC1COCC1O` (stereo not drawn) [Compound 760], the “Hot-plate response” value in the series with rats (up to 300 mg/kg oral) is recorded as “displayed safety potential at up to 300 mg/kg oral dosing”. For the same compound, the “Cytotoxic effect in Ames strains” value in [1] is recorded as “No significant cytotoxic effect”. Moreover, the “Reversion rates” value in series [1] is “did not induce substantial dose-dependent increases in reversion rates”. Besides, the “Effect on Dopamine D1-D5” value in the series on Dopamine D1-D5 is given as “no effect”. Besides, the pIC50 was 5.52 at Cav1.2; 4.52 on 5-HT1A; less than 4.30 on CYP2C19 (Table 9, read-out: CYP inhibition IC50 CYP2C19); less than 4.30 at CYP2D6 (Table 9, read-out: CYP inhibition IC50 CYP2D6). Besides, on nAChR(a4/b2), the “Effect on nAChR(a4/b2)” value was “no effect”. In addition, in the series on COX-1/2, the “Effect on COX-1/2” value is recorded as “no effect”.
In the case of `O=C(Cc1cncc(-n2cc(Cl)c3cc(Cl)cc(Cl)c32)c1)N[C@@H]1COC[C@H]1O` [Compound 661], in the series with rats (20 and 50 mg/kg PO, 2-10 hours post-dose), the “Hot plate escape latency” value is on record as “no significant effect on escape latency”. Also, the pIC50 against adrenergic α2A is 5.22; on CYP2C19 ((+)NADPH pre-incubation, substrate S-mephenytoin, read-out: IC50 (+)NADPH CYP2C19_S-Mephenytoin), 4.73; at CYP2C19 ((−)NADPH pre-incubation, substrate S-mephenytoin, read-out: IC50 (−)NADPH CYP2C19_S-Mephenytoin), 4.81; at CYP2D6 ((+)NADPH pre-incubation, substrate dextromethorphan, read-out: IC50 (+)NADPH CYP2D6_Dextromethorphan) it was 4.50; at CYP2D6 ((−)NADPH pre-incubation, substrate dextromethorphan, read-out: IC50 (−)NADPH CYP2D6_Dextromethorphan) it was 4.55. The “Free exposure in DRG” value in the series “DRG distribution in rat” amounted to 0.012 nM.

These data come from patent US20260327211A1, “MODULATORS OF A POTASSIUM CHANNEL AND OF TRPV1 CHANNEL AND USES THEREOF” (Bsense Bio Therapeutics Ltd., priority 2023, published 2026).
